Measurements: US7385039B2, “Methods and compositions for regulating imidazoline receptors” (priority 1998, dated 2008)
Several values for one entry are separate records, joined by “and”; a condition that tells them apart may be missing. Equal values may be shown once. Entries after “also recorded” stand apart in the source; their conditions may differ. Read-outs that look alike come from different tables or passages of the source. One block for each compound: values may come before it.

Legend:
Imidazoline I Sites = assay: [125I]p-iodoclonidine competition binding to bovine RVLM membranes, imidazoline sites
Source text: (§1) Whole bovine brains and adrenal glands were obtained from a local slaughterhouse. Brains were immediately placed on a chilled glass plate, washed with ice-cold Krebs'-Henseleit buffer, and dissected. The rostral medulla was isolated by transecting the brainstem rostrally at the posterior margin of the trapezoid body and caudally 1 cm caudal to the obex. The pia-arachnoid was removed, and the lateral medulla was isolated by a sagittal section through the lateral margin of the pyramids, and then bisected. The ventral half was defined as the ventrolateral medulla (VLM). Brain samples were transported on ice to the laboratory and processed immediately.
(§2) Fresh bovine VLM was homogenized by using a polytron (Tekmar Tissuemizer, setting 80 for 2×15 sec) in 20 volumes of ice-cold Hepes-buffered isotonic sucrose (pH brought to 7.4 with Tris base) containing the protease inhibitors (1,10)-phenanthroline (100 μM) and phenylmethylsulfonyl fluoride (50 μM) in order to inhibit degradation of receptor protein. Bovine adrenomedullary cells were homogenized in 15 ml Hepes-buffered isotonic sucrose by 10 strokes in a glass-glass hand-held homogenizer. All three homogenates were centrifuged at 1000×g for 5 min at 4° C. to remove nuclei and debris. The pellets (P1) were resuspended in 20 ml of homogenization buffer, and centrifuged again at 1000×g for 5 min. The combined supernatants were centrifuged at 48,000 g for 18 min at 4° C., and the resulting P2 pellet was resuspended in 10 to 25 volumes of 50 mM Tris-HCl buffer (pH 7.7) containing 5 mM EDTA. After recentrifugation at 48,000 g for 18 min, the resulting membrane pellet was resuspended in Tris-HCl containing 25 mM NaCl, preincubated for 30 min at 25° C., chilled on ice, centrifuged again, resuspended a final time in Tris-HCl alone, centrifuged, flash-frozen, and stored at −70° C. for up to three months.
(§3) Radioligand binding assays with [^3H]clonidine or [^125I]p-iodoclonidine for determination of specific membrane binding to VLM and renal medulla imidazoline sites and α2-adrenergic receptors were performed by a modification of methods previously described (Ernsberger P. et al., 1997, J. Hypertension 1997, 15:S9-S23). Membranes were slowly thawed and resuspended in Tris-Hepes buffer (5.0 mM; pH 7.7 at 25° C., containing 0.5 mM EDTA, 0.5 mM EGTA, and 0.5 mM MgCl2) at a concentration of 1 mg protein/ml for the VLM, 4 mg protein/ml for the renal medulla, and 0.2 mg protein/ml for adrenomedullary cells. Assays were conducted in a total volume of 250 μl in polypropylene 96-well plates (Beckman Macrowell), and each well contained 125 μl membrane suspension, 25 μl radioligand, and 100 μl drug or vehicle. Incubations were initiated by the addition of membrane and were carried out for 30 min at 22° C. Nonspecific binding was defined in the presence of 10 μM BDF-6143, an imidazoline adrenergic agent. Specific α2-adrenergic binding was defined by inhibition with (−)epinephrine (0.1 mM). In experiments using catecholamines, all samples contained ascorbic acid in a final concentration of 0.001%. Incubations were terminated by vacuum filtration using a cell harvester (Brandel) equipped with Teflon tubing to reduce absorption of the radioligand over glass fiber filters (Schleicher & Schuell #34) which were preincubated for 4 h at 4° C. in 0.03% polyethylimine to reduce nonspecific binding to the filter. The filters were washed four times with 5 ml ice-cold Tris-HCl, placed in scintillation vials, covered with 4 ml scintillation cocktail (BioSafe II, Research Products International), and counted at 50% efficiency (Beckman LS5801). Protein was assayed by the bicinchoninic acid method.
(§4) Data were obtained as dpm and transferred to the Equilibrium Binding Data Analysis (EBDA) program for initial processing; 4 to 10 experiments were analyzed simultaneously by using the LIGAND program for nonlinear curve-fitting. Protein assay data were also analyzed by nonlinear curve-fitting.
(§5) Competition binding assays. […]

I1R = I1R model: [3H]arachidonic acid release from PC-12 cells; assay type: cell-based; settings: for stimulation of [3H]AA release (in words): IAA-R 10 μM-1 mM
Protocol: Assays for measuring imidazoline receptor-mediated arachidonic acid release from PC12 cells is as described in Ernsberger et al., (1995, FASEB J. 9:A114).
I1R model: [^3H]Arachidonic acid (AA) release from PC-12 cells. Assays (Emsberger, P. (1998) J. Auton. Nerv. Syst. 72, 147-154 Ernsberger, P. (1998) J. Auton. Nerv. Syst. 72, 147-154) were done after a 30 min washout to attain a stable background. Cells were superfused with 0.01% BSA in Krebs buffer for seven 1-min fractions (baseline), then treated with 10 μM or 100 μM I-4-AA-RP alone, or together with efaroxan (10 μM), a prototypical I1-antagonist/I3-agonist. Controls included baseline release with vehicle alone (0-7 min) or vehicle containing efaroxan (5 min) before adding I-4-AA-RP. [^3H]products (>98% AA) collected in each 1-min fraction were expressed as fractional release defined as % total radioactivity incorporated into cells, corrected for [^3H]AA previously released (Ernsberger, P. (1998) J. Auton. Nerv. Syst. 72, 147-154).

I3R [1] = assay: I3R model: insulin release from rat islets of Langerhans; assay type: cell-based
Protocol: (§6) Islets of Langerhans from male Wistar rats were isolated by collagenase digestion in a medium of bicarbonate-buffered physiological saline solution containing 4 mM D-glucose and 1 mM CaCl2. Islets were selected under a binocular dissecting microscope and were used within two hours of isolation. Islets from humans were isolated from heart-beating cadaver organ donors by collagenase digestion and density gradient centrifugation (Chan, S. L. F., et al., 1997, Brit. J. Pharmacol. 120:926-932).
Incubations were done in 96-well plates. Isolated islets were incubated in 100 μl buffer solution supplemented with bovine serum albumin in humidified air: CO2 (95:5%) at 37° C. in the presence of test agents. To eliminate any potential alpha-2 responses, yohimbine (10 μM), a potent alpha2-adrenergic blocker, was included in all incubations. After 60 min incubation, samples of medium were removed for measurement of insulin release by radioimmunoassay using anti-bovine insulin antiserum. Presence of insulin in the test media were compared to controls; positive differences represented amounts of insulin released. In reversal experiments, diazoxide (e.g., 200 μM) was pre-incubated to block glucose-induced insulin release. In these studies, test reagents were used to determine if they were capable of overcoming diazoxide's inhibitory effects on K+ ATP channels, a well known action of imidazoline secretagogues in islet cells. For example, efaroxan (an inhibitor of I-1 responses in adrenal medullary cells) is a well known I-3 agonist, i.e., it stimulates (at 100 μM) release of insulin and overcomes diazoxide inhibition thus illustrating again the dictomy between I1 and I3 receptor subtypes.
I3R model: Insulin release from pancreas (Eglen, R. M., Hudson, A. L., Kendall, D. A., Nutt, D. J., Morgan, N. G., Wilson, V. G. & Dillon, M. P. (1998) TIPS 19, 381-390; Chan, S. L. F. (1998) Gen. Pharmacol. 31, 525-529; Morgan, N. G. (1999) Exp. Opin. Invest. Drugs 8, 575-584). Islets of Langerhans from male Wistar rats or human pancreata were isolated by collagenase digestion. Hand-picked islets were incubated in NaHCO3-buffered saline containing 1 mM CaCl2, 1 mg/ml BSA and test reagents. After incubation, insulin levels in supernatants were analyzed by RIA. The I3-blocker, KU-14R, served to verify I3R function.

SH rats = assay: Mean arterial pressure and heart rate after microinjection into the RVLM of rats; assay type: in vivo, rat; settings: SH rats
Protocol: Effects of ribotide on mean arterial pressure (MAP) and heart rate (HR). Bilateral I-4-AA-RP microinjections (60 nl, 100 nmol) into the RVLM of SH rats were performed (Emsberger, P. & Haxhiu, M. A. (1997) Am. J. Physiol. 273, R1572-R1579) after the sympatho-excitatory area was confirmed by showing glutamate-induced MAP elevation ≧30 mm Hg. MAP and HR values were measured every 5 min. After each experiment, the injection site was marked by infusion of rhodamine microspheres. Changes were assessed relative to baseline values by two-way repeated measures ANOVA and Dunnett's test. A second group of SH rats (injection controls) received vehicle injections to control for injection effects and for volume artifacts due to multiple injections. Vehicle contained 2 nmol rilmenidine, a sub-threshold dose, far below that known to cause any detectable effect (Gomez, R. E., Emsberger, P., Feinland, G. & Reis, D. J. (1991) Eur. J. Pharmacol. 195, 181-191). In a follow-up study, SH rats (N=6) were given I-4-AA-RP then moxonidine. When used alone, it reduces MAP to normotensive levels (Emsberger, P., Elliott, H. L., Weimann, H.-J., Raap, A., Haxhiu, M. A., Hofferber, E., Low-Kroger, A., Reid, J. L. & Mest, H. J. (1993) Cardiovas. Drug Rev. 11, 411-431).

α2-Adrenergic Sites = assay: [125I]p-iodoclonidine competition binding to bovine RVLM membranes, α2-adrenergic sites; settings: for Ki: read-out: Ki, α2-Adrenergic Sites (low affinity sites)
Source text: as §1, §2, §3, §4, §5

I3R [2] = assay: I3R model: insulin release from human islets; assay type: cell-based
Protocol: as §6
Incubations were done in 96-well plates. Isolated islets were incubated in 100 μl buffer solution supplemented with bovine serum albumin in humidified air: CO2 (95:5%) at 37° C. in the presence of test agents. To eliminate any potential alpha-2 responses, yohimbine (10 μM), a potent alpha2-adrenergic blocker, was included in all incubations. After 60 min incubation, samples of medium were removed for measurement of insulin release by radioimmunoassay using anti-bovine insulin antiserum. […]
I3R model: Insulin release from pancreas (Eglen, R. M., Hudson, A. L., Kendall, D. A., Nutt, D. J., Morgan, N. G., Wilson, V. G. & Dillon, M. P. (1998) TIPS 19, 381-390; Chan, S. L. F. (1998) Gen. Pharmacol. 31, 525-529; Morgan, N. G. (1999) Exp. Opin. Invest. Drugs 8, 575-584). […] After incubation, insulin levels in supernatants were analyzed by RIA. […]

β-TC3 cells = assay: Insulin release from insulinoma cells in culture; assay type: cell-based
[3] = With cimetidine (I-sites masked)

- Ki (Imidazoline I Sites; bovine RVLM membranes, [125I]PIC, read-out: K1 in RVLM, parallel assays): 266 ± 48 µM
Compound: O=C(O)Cc1cn([C@@H]2O[C@H](CO)[C@@H](O)[C@H]2O)cn1 [IAA-R, 1-(β-D-ribofuranosyl)-imidazole-4-acetic acid]
- stimulation of [3H]AA release (in words) (I1R): no significant response
- reversal of the inhibitory action of diazoxide on glucose-induced insulin release (I3R [1]): able to reverse the inhibitory action of diazoxide
- activity relative to IAA-RP's maximal activity on insulin release (I3R [1]; paired experiment, pancreatic beta cells): < 50%
- stimulation of insulin release (in words) (I3R [1]; rat islets): potent stimulants of insulin release
- change of heart rate (HR) (SH rats; 100 nmol into RVLM): did not alter MAP or HR significantly
- effect on MAP (in words) (SH rats; 100 nmol into RVLM): did not alter MAP or HR significantly

- affinity of high-affinity RVLM sites relative to low-affinity RVLM sites and adrenal I1R sites (Imidazoline I Sites): > 100 fold
- fold greater affinity than IAA-R in displacing [125I]p-iodoclonidine (Imidazoline I Sites): > 100 fold
- Percent Sites, Imidazoline I Sites (high affinity component) (Imidazoline I Sites; Control (no masking ligand)): 71% and 71±5%
- Ki (Imidazoline I Sites; Control (no masking ligand), read-out: Ki, Imidazoline I Sites): 0.16 ± 0.038 µM
- selectivity for I-Rs over α2-sites (Imidazoline I Sites; RVLM): > 1000 fold
- Percent Sites, Imidazoline I Sites (high affinity component) (Imidazoline I Sites; With epinephrine (α2Rs masked)): 86% and 86±4%
- Ki (Imidazoline I Sites; With epinephrine (α2Rs masked), read-out: Ki, Imidazoline I Sites): 0.1 ± 0.019 µM
- Percent Sites, α2-Adrenergic Sites (α2-Adrenergic Sites; Control (no masking ligand)): 29 ± 5%
- Ki (α2-Adrenergic Sites; Control (no masking ligand)): 57 ± 33 µM
- Percent Sites, α2-Adrenergic Sites (α2-Adrenergic Sites; [3]): 100 ± 10%
- Ki (α2-Adrenergic Sites; [3]): 210 ± 32 µM
- Percent Sites, α2-Adrenergic Sites (α2-Adrenergic Sites; With epinephrine (α2Rs masked)): 14 ± 4%
- Ki (α2-Adrenergic Sites; With epinephrine (α2Rs masked)): 60 ± 48 µM
- fold lower affinity of remaining (low affinity) sites versus high affinity component (α2-Adrenergic Sites; no masking ligands): > 300 fold
- EC50 (I3R [1]; rat islets, glucose 20 mM and diazoxide 200 μM): 0.03 to 0.05 µM
- EC50 (I3R [2]): ~0.003 µM
Compound: O=C(O)Cc1cn(C2OC(COP(=O)(O)O)C(O)C2O)cn1 [IAA-RP, 1-(β-D-ribofuranosyl)-imidazole-4-acetic acid 5′ phosphate]
- increase of [3H]AA release (I1R; 10 μM): 68±29%
- increase of [3H]AA release (I1R; 100 μM): 177±89%
- stimulation of [3H]AA release (in words) (I1R): stimulated release of arachidonic acid
- reversal of the inhibitory action of diazoxide on glucose-induced insulin release (I3R [1]): overcame inhibitory effects of the KATP-channel agonist, diazoxide
- reversal of the inhibitory action of diazoxide on glucose-induced insulin release (I3R [1]; listed as tele-linked IAA-RP): able to reverse the inhibitory action of diazoxide
- stimulation of insulin release (in words) (I3R [1]; rat islets): potent stimulants of insulin release; also recorded: increased insulin secretion from islets; also recorded: far more potent than efaroxan
- rise of MAP over baseline (SH rats; 100 nmol bilateral microinjection into RVLM): ~25 mm Hg
- change of heart rate (HR) (SH rats; 100 nmol into RVLM): no significant changes
- MAP elevation above baseline (SH rats; after six 100 nmol doses): 20.4±5.6%
- stimulation of insulin release (β-TC3 cells): capable of stimulating insulin release

Compound: CCC1(c2ncc[nH]2)Cc2ccccc2O1 (stereo not shown) [KU-14R, reference compound]
- blockade of IAA-RP-induced insulin secretion (I3R [1]; KU-14R 100 μM, IAA-RP 1 μM, diazoxide 200 μM): abolished IAA-RP-induced secretion
